The results in this text go back to patent publication US20160145242A1, “PHENYLIMIDAZOLE DERIVATIVE, AND THERAPEUTIC MEDICINE OR PREVENTIVE MEDICINE FOR INFLAMMATORY DISEASE, ETC” (NIPPON SODA CO., LTD., priority 2013, published 2016).

Holding throughout (format): biochemical
In test [1] the target is T1, guinea pig lung-derived leukotriene A4 hydrolase (Cavia porcellus, UniProt P19602).
T1 construct: guinea pig lung-derived leukotriene A4 hydrolase; from tissue; host or cells: Dunkin-Hartley guinea pig lung
T1 sequence (P19602 1-611): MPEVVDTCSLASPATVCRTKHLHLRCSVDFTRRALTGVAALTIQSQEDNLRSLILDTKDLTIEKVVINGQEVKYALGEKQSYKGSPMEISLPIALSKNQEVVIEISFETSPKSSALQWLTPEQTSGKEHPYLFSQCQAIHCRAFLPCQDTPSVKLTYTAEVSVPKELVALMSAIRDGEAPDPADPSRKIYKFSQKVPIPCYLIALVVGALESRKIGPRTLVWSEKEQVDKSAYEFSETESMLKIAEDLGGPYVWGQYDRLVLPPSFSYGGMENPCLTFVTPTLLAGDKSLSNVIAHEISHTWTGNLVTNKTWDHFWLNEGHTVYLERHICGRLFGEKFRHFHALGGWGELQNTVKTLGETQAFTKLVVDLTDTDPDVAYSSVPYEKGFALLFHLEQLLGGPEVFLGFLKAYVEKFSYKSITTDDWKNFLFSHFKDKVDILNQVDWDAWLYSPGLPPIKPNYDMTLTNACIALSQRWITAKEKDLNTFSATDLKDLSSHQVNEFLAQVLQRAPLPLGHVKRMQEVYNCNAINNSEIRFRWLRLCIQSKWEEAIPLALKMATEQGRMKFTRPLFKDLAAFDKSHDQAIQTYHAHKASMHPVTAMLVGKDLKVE
Kind of test: Leukotriene A4 hydrolase activity inhibitory action. Particulars: read-out: leukotriene A4 hydrolase activity inhibition rate. The protocol: The inhibitory action of the compound according to the present invention with respect to the activity of the present enzyme was examined using guinea pig lung-derived leukotriene A4 hydrolase.
Dunkin-Hartley guinea pig lung-derived leukotriene A4 hydrolase was reacted with […] of leukotriene A4 and the amount of leukotriene B4 which was a reaction product was measured by an enzyme-linked immunosorbent assay. 3 μM of the compound of the present invention dissolved in dimethyl sulfoxide was added to the reaction system and the inhibition rate of leukotriene B4 generation (leukotriene A4 hydrolase activity inhibition rate) was measured.

Test [2] concerns rattlesnake-derived phospholipase A2-II. Kind of test: Phospholipase A2-II activity inhibitory action. Particulars: 3 μM. The protocol: The inhibitory action of the compound according to the present invention with respect to the activity of the present enzyme was examined using rattlesnake-derived phospholipase A2-II.
The rattlesnake-derived phospholipase A2-II was reacted with 0.030 μCi of 1-palmitoyl-2-[1-^14C]oleoyl-L-3-phosphatidylcholine and the amount of ^14C oleate which was a reaction product was measured by a radiation measurement method. 3 μM of the compound according to the present invention dissolved in dimethyl sulfoxide was added to the reaction system and the inhibition rate of ^14C oleate generation (phospholipase A2-II activity inhibition rate) was measured.

The target of test [3] is T2, human platelet-derived thromboxane synthase (Homo sapiens, UniProt P24557).
T2 construct: host or cells: human recombinant cells (so in the source); platelets
T2 sequence (P24557 1-533): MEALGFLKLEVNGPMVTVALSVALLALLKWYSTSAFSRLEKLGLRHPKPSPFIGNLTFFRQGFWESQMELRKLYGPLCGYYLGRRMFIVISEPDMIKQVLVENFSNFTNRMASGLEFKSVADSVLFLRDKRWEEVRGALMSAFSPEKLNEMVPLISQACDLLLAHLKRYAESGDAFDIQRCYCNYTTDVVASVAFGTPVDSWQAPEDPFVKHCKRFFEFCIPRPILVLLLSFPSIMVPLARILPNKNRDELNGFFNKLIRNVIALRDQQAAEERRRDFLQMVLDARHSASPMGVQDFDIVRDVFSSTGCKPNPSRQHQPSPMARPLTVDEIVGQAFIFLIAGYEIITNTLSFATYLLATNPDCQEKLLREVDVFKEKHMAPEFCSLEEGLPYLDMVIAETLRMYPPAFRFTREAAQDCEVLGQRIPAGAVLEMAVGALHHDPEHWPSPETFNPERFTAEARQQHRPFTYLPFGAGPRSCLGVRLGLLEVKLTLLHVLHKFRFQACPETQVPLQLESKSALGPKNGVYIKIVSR
Kind of test: Thromboxane synthase activity inhibitory action. The following applies: read-out: thromboxane synthase activity inhibition rate. On the procedure: The inhibitory action of the compound according to the present invention with respect to the activity of the present enzyme was examined using human platelet-derived thromboxane synthase.
Thromboxane synthase of human recombinant cells was reacted with 2.10 μM of prostaglandin H2 and the amount of thromboxane B2 which was a reaction product was measured by an enzyme-linked immunosorbent assay. 3 μM of the compound according to the present invention dissolved in dimethyl sulfoxide was added to the reaction system and the inhibition rate of thromboxane B2 generation (thromboxane synthase activity inhibition rate) was measured.

For test [4], the system named is guinea pig liver microsome-derived lipid peroxidase. Kind of test: Lipid peroxidase activity inhibitory action. The following applies: 3 μM. On the procedure:
The inhibitory action of the compound according to the present invention with respect to the activity of the present enzyme was examined using guinea pig liver microsome-derived lipid peroxidase.
Dunkin-Hartley guinea pig lung-derived lipid peroxidase was reacted with 0.25 M of polyvalent unsaturated fatty acids and the amount of malondialdehyde which was a reaction product was measured by an absorbance determination method. 3 μM of the compound according to the present invention dissolved in dimethyl sulfoxide was added to the reaction system and the inhibition rate of malondialdehyde generation (lipid peroxidase activity inhibition rate) was measured.

Turning to `CC(=O)N1CCN(c2ccc(N)c(-n3ccnc3)c2)CC1` [Compound 1-1, 4-acetyl-1-(4-amino-3-imidazole-1-yl-phenyl)piperazine], the inhibition – broadly, how much of the control response was suppressed – at 3 µM in test [1] was 14%; in test [3] it was 32%. Further, the “phospholipase A2-II activity inhibition rate” value in test [2] is on record as 12%. Also, in test [4], the “lipid peroxidase activity inhibition rate” value is 13%.
